Patent US20230085307A1, “PYRIDAZINONE COMPOUND AND HERBICIDE” (NISSAN CHEMICAL CORPORATION, priority 2019, published 2023)

Experiments:
late watergrass = assay: Test Example 1: herbicidal activity, application before weed generation under submerged conditions (Table 16, symbol A); type: in vivo, late watergrass (Echinochloa oryzicola)
In short: (§1)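 Submerged Wagner pots (alluvial soil, 4 cm water) sown with weed seeds and planted with 2.5-leaf rice seedlings; emulsifiable concentrate diluted in water applied to water surface on sowing day. Held in greenhouse at 25-30 °C; injury scored 0-5 by herbicidal rate after three weeks.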

Japanese bulrush = assay: Test Example 1: herbicidal activity, application before weed generation under submerged conditions (Table 16, symbol B); type: in vivo, Japanese bulrush (Schoenoplectus juncoides)
In short: as §1

oval-leafed pondweed = assay: Test Example 1: herbicidal activity, application before weed generation under submerged conditions (Table 16, symbol C); type: in vivo, oval-leafed pondweed (Monochoria vaginalis)
In short: as §1

barnyard grass [1] = assay: Test Example 3: herbicidal effect by foliage application, Wagner pot (Table 18, symbol H); type: in vivo, barnyard grass (Echinochloa crus-galli)
In short: (§2)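 Plants were sown in alluvial soil held under 0.1–0.5 cm standing water and grown 14 days in a greenhouse at 25–30 °C. An emulsifiable formulation, water-diluted to the set dose, was then sprayed onto the foliage, and effects were scored three weeks later using previously defined criteria.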

Chinese sprangletop = assay: Test Example 3: herbicidal effect by foliage application, Wagner pot (Table 18, symbol D); type: in vivo, chinese sprangletop (Leptochloa chinensis)
In short: as §2

rice flat sedge = assay: Test Example 3: herbicidal effect by foliage application, Wagner pot (Table 18, symbol E); type: in vivo, rice flat sedge (Cyperus iria)
In short: as §2

southern crabgrass [2] = assay: Test Example 4: herbicidal effect by soil treatment (Table 19, symbol F); type: in vivo, southern crabgrass (Digitaria ciliaris)
In short: (§3)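 Herbicidal effect was rated 3 weeks after treatment, using the scoring criteria of an earlier test. The compound, formulated as an emulsion and diluted in water to a set herbicide amount, had been sprayed uniformly on soil over freshly sown seeds. Growth took place in a greenhouse at 25° C. to 30° C.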

green foxtail [3] = assay: Test Example 4: herbicidal effect by soil treatment (Table 19, symbol G); type: in vivo, green foxtail (Setaria viridis)
In short: as §3

barnyard grass [4] = assay: Test Example 4: herbicidal effect by soil treatment (Table 19, symbol H); type: in vivo, barnyard grass (Echinochloa crus-galli)
In short: as §3

wild oat [5] = assay: Test Example 4: herbicidal effect by soil treatment (Table 19, symbol I); type: in vivo, wild oat (Avena fatua)
In short: as §3

Italian ryegrass [6] = assay: Test Example 4: herbicidal effect by soil treatment (Table 19, symbol K); type: in vivo, Italian ryegrass (Lolium multiflorum)
In short: as §3

windgrass [7] = assay: Test Example 4: herbicidal effect by soil treatment (Table 19, symbol L); type: in vivo, windgrass (Apera spica-venti)
In short: as §3

velvetleaf [8] = assay: Test Example 4: herbicidal effect by soil treatment (Table 19, symbol M); type: in vivo, velvetleaf (Abutilon theophrasti)
In short: as §3

redroot pigweed [9] = assay: Test Example 4: herbicidal effect by soil treatment (Table 19, symbol N); type: in vivo, redroot pigweed (Amaranthus retroflexus)
In short: as §3

lambsquarters [10] = assay: Test Example 4: herbicidal effect by soil treatment (Table 19, symbol O); type: in vivo, lambsquarters (Chenopodium album)
In short: as §3

chickweed [11] = assay: Test Example 4: herbicidal effect by soil treatment (Table 19, symbol P); type: in vivo, common chickweed (Stellaria media); details: amount of applied herbicide 320 g/ha
In short: as §3

persian speedwell [12] = assay: Test Example 4: herbicidal effect by soil treatment (Table 19, symbol R); type: in vivo, Persian speedwell (Veronica persica)
In short: as §3

southern crabgrass [13] = assay: Test Example 5: herbicidal effect by foliage application, plastic box (Table 20, symbol F); type: in vivo, southern crabgrass (Digitaria ciliaris); details: foliage application, 320 g/ha
In short: (§4)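 Foliar spray test: emulsion formulation diluted in water to a set application rate, sprayed onto 14-day-old plants raised in diluvial soil at 25° C to 30° C under glass. Both herbicidal effect and crop effect rated visually three weeks later.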

green foxtail [14] = assay: Test Example 5: herbicidal effect by foliage application, plastic box (Table 20, symbol G); type: in vivo, green foxtail (Setaria viridis); details: foliage application, 320 g/ha
In short: as §4

barnyard grass [15] = assay: Test Example 5: herbicidal effect by foliage application, plastic box (Table 20, symbol H); type: in vivo, barnyard grass (Echinochloa crus-galli); details: foliage application, 320 g/ha
In short: as §4

wild oat [16] = assay: Test Example 5: herbicidal effect by foliage application, plastic box (Table 20, symbol I); type: in vivo, wild oat (Avena fatua); details: foliage application, 320 g/ha
In short: as §4

blackgrass [17] = assay: Test Example 5: herbicidal effect by foliage application, plastic box (Table 20, symbol J); type: in vivo, blackgrass (Alopecurus myosuroides); details: foliage application, 320 g/ha
In short: as §4

Italian ryegrass [18] = assay: Test Example 5: herbicidal effect by foliage application, plastic box (Table 20, symbol K); type: in vivo, Italian ryegrass (Lolium multiflorum); details: foliage application, 320 g/ha
In short: as §4

windgrass [19] = assay: Test Example 5: herbicidal effect by foliage application, plastic box (Table 20, symbol L); type: in vivo, windgrass (Apera spica-venti); details: foliage application, 320 g/ha
In short: as §4

velvetleaf [20] = assay: Test Example 5: herbicidal effect by foliage application, plastic box (Table 20, symbol M); type: in vivo, velvetleaf (Abutilon theophrasti); details: foliage application, 320 g/ha
In short: as §4

redroot pigweed [21] = assay: Test Example 5: herbicidal effect by foliage application, plastic box (Table 20, symbol N); type: in vivo, redroot pigweed (Amaranthus retroflexus); details: foliage application, 320 g/ha, three weeks after application
In short: as §4

lambsquarters [22] = assay: Test Example 5: herbicidal effect by foliage application, plastic box (Table 20, symbol O); type: in vivo, lambsquarters (Chenopodium album); details: foliage application, 320 g/ha
In short: as §4

chickweed [23] = assay: Test Example 5: herbicidal effect by foliage application, plastic box (Table 20, symbol P); type: in vivo, common chickweed (Stellaria media); details: foliage application, 320 g/ha, three weeks after application
In short: as §4

persian speedwell [24] = assay: Test Example 5: herbicidal effect by foliage application, plastic box (Table 20, symbol R); type: in vivo, Persian speedwell (Veronica persica); details: foliage application, 320 g/ha
In short: as §4

blackgrass [25] = assay: Test Example 4: herbicidal effect by soil treatment (Table 19, symbol J); type: in vivo, blackgrass (Alopecurus myosuroides); details: AAH 320 g/ha
In short: as §3

[26] = amount of applied herbicide 320 g/ha

In the case of Cc1nn(C)c(=O)c(-c2c(-c3ccc(N(C)C)cc3)sc3ccc(F)cc23)c1O [2-425], the “Herbicidal effect, A: late watergrass” value (late watergrass; [26]) is reported as 3 (Herbicidal rate of 40% or more and less than 70%), the “Herbicidal effect, B: Japanese bulrush” value (Japanese bulrush; [26]) is reported as 3 (Herbicidal rate of 40% or more and less than 70%) and the “Herbicidal effect, C: oval-leafed pondweed” value (oval-leafed pondweed; [26]) is reported as 0 (Herbicidal rate of 5% or less (almost no effect)). The “herbicidal effect on H: barnyard grass” value (barnyard grass [1]; [26]) was 4 (Herbicidal rate of 70% or more and less than 90%), the “herbicidal effect on D: Chinese sprangletop” value (Chinese sprangletop; [26]) was 2 (Herbicidal rate of 20% or more and less than 40%) and the “herbicidal effect on E: rice flat sedge” value (rice flat sedge; [26]) was 5 (Herbicidal rate of 90% or more (almost completely withered)). The “herbicidal effect, F: southern crabgrass” value (southern crabgrass [2]; [26]) was 0 (Herbicidal rate of 5% or less (almost no effect)), the “herbicidal effect, G: green foxtail” value (green foxtail [3]; [26]) was 0 (Herbicidal rate of 5% or less (almost no effect)) and the “herbicidal effect, H: barnyard grass” value (barnyard grass [4]; [26]) was 0 (Herbicidal rate of 5% or less (almost no effect)). For the same compound, the “herbicidal effect, I: wild oat” value (wild oat [5]; [26]) was 0 (Herbicidal rate of 5% or less (almost no effect)), the “herbicidal effect, K: Italian ryegrass” value (Italian ryegrass [6]; [26]) was 2 (Herbicidal rate of 20% or more and less than 40%) and the “herbicidal effect, L: windgrass” value (windgrass [7]; [26]) was 0 (Herbicidal rate of 5% or less (almost no effect)). For the same compound, the “herbicidal effect, M: velvetleaf” value (velvetleaf [8]; [26]) was 0 (Herbicidal rate of 5% or less (almost no effect)), the “herbicidal effect, N: redroot pigweed” value (redroot pigweed [9]; [26]) was 5 (Herbicidal rate of 90% or more (almost completely withered)) and the “herbicidal effect, O: lambsquarters” value (lambsquarters [10]; [26]) was 4 (Herbicidal rate of 70% or more and less than 90%). The “herbicidal effect, P: chickweed” value (chickweed [11]) was 3 (Herbicidal rate of 40% or more and less than 70%), the “herbicidal effect, R: persian speedwell” value (persian speedwell [12]; [26]) was 5 (Herbicidal rate of 90% or more (almost completely withered)) and the “F: southern crabgrass, herbicidal effect grade” value (southern crabgrass [13]; three weeks after application) was 5 (Herbicidal rate of 90% or more (almost completely withered)). The “G: green foxtail, herbicidal effect grade” value (green foxtail [14]; three weeks after application) was 5 (Herbicidal rate of 90% or more (almost completely withered)), the “H: barnyard grass, herbicidal effect grade” value (barnyard grass [15]; three weeks after application) was 4 (Herbicidal rate of 70% or more and less than 90%) and the “I: wild oat, herbicidal effect grade” value (wild oat [16]; three weeks after application) was 4 (Herbicidal rate of 70% or more and less than 90%). The “J: blackgrass, herbicidal effect grade” value (blackgrass [17]; three weeks after application) was 4 (Herbicidal rate of 70% or more and less than 90%), the “K: Italian ryegrass, herbicidal effect grade” value (Italian ryegrass [18]; three weeks after application) was 4 (Herbicidal rate of 70% or more and less than 90%) and the “L: windgrass, herbicidal effect grade” value (windgrass [19]; three weeks after application) was 5 (Herbicidal rate of 90% or more (almost completely withered)). For the same compound, the “M: velvetleaf, herbicidal effect grade” value (velvetleaf [20]; three weeks after application) was 5 (Herbicidal rate of 90% or more (almost completely withered)), the “N: redroot pigweed, herbicidal effect grade” value (redroot pigweed [21]) was 5 (Herbicidal rate of 90% or more (almost completely withered)) and the “O: lambsquarters, herbicidal effect grade” value (lambsquarters [22]; three weeks after application) was 5 (Herbicidal rate of 90% or more (almost completely withered)). For the same compound, the “P: chickweed, herbicidal effect grade” value (chickweed [23]) was 5 (Herbicidal rate of 90% or more (almost completely withered)) and the “R: persian speedwell, herbicidal effect grade” value (persian speedwell [24]; three weeks after application) was 5 (Herbicidal rate of 90% or more (almost completely withered)).

C=CCSCc1ccc(-c2sc3ccccc3c2-c2c(O)c(C)nn(C)c2=O)cc1 [1-245] was tested, and the “Herbicidal effect on A: late watergrass (grade 0-5)” value (late watergrass; 320 g/ha applied herbicide) was 3 (Herbicidal rate of 40% or more and less than 70%), the “Herbicidal effect on B: Japanese bulrush (grade 0-5)” value (Japanese bulrush; 320 g/ha applied herbicide) was 3 (Herbicidal rate of 40% or more and less than 70%) and the “Herbicidal effect on C: oval-leafed pondweed (grade 0-5)” value (oval-leafed pondweed; 320 g/ha applied herbicide) was 0 (Herbicidal rate of 5% or less (almost no effect)). The “herbicidal effect on H (barnyard grass), rating 0-5” value (barnyard grass [1]; 320 g/ha) was 5 (Herbicidal rate of 90% or more (almost completely withered)), the “herbicidal effect on D (Chinese sprangletop), rating 0-5” value (Chinese sprangletop; 320 g/ha) was 3 (Herbicidal rate of 40% or more and less than 70%) and the “herbicidal effect on E (rice flat sedge), rating 0-5” value (rice flat sedge; 320 g/ha) was 3 (Herbicidal rate of 40% or more and less than 70%). For the same compound, the “F: southern crabgrass, herbicidal effect rating” value (southern crabgrass [2]; AAH 320 g/ha) was 0 (Herbicidal rate of 5% or less (almost no effect)), the “G: green foxtail, herbicidal effect rating” value (green foxtail [3]; AAH 320 g/ha) was 0 (Herbicidal rate of 5% or less (almost no effect)) and the “H: barnyard grass, herbicidal effect rating” value (barnyard grass [4]; AAH 320 g/ha) was 0 (Herbicidal rate of 5% or less (almost no effect)). The “I: wild oat, herbicidal effect rating” value (wild oat [5]; AAH 320 g/ha) was 0 (Herbicidal rate of 5% or less (almost no effect)), the “J: blackgrass, herbicidal effect rating” value (blackgrass [25]) was 0 (Herbicidal rate of 5% or less (almost no effect)) and the “K: Italian ryegrass, herbicidal effect rating” value (Italian ryegrass [6]; AAH 320 g/ha) was 2 (Herbicidal rate of 20% or more and less than 40%). For the same compound, the “L: windgrass, herbicidal effect rating” value (windgrass [7]; AAH 320 g/ha) was 0 (Herbicidal rate of 5% or less (almost no effect)), the “M: velvetleaf, herbicidal effect rating” value (velvetleaf [8]; AAH 320 g/ha) was 0 (Herbicidal rate of 5% or less (almost no effect)) and the “N: redroot pigweed, herbicidal effect rating” value (redroot pigweed [9]; AAH 320 g/ha) was 3 (Herbicidal rate of 40% or more and less than 70%). The “O: lambsquarters, herbicidal effect rating” value (lambsquarters [10]; AAH 320 g/ha) was 3 (Herbicidal rate of 40% or more and less than 70%), the “R: persian speedwell, herbicidal effect rating” value (persian speedwell [12]; AAH 320 g/ha) was 4 (Herbicidal rate of 70% or more and less than 90%) and the “effect on southern crabgrass (F)” value (southern crabgrass [13]; 3 weeks after application) was 3 (Herbicidal rate of 40% or more and less than 70%). The “effect on green foxtail (G)” value (green foxtail [14]; 3 weeks after application) was 4 (Herbicidal rate of 70% or more and less than 90%), the “effect on barnyard grass (H)” value (barnyard grass [15]; 3 weeks after application) was 5 (Herbicidal rate of 90% or more (almost completely withered)) and the “effect on wild oat (I)” value (wild oat [16]; 3 weeks after application) was 1 (Herbicidal rate of 5% or more and less than 20%). The “effect on blackgrass (J)” value (blackgrass [17]; 3 weeks after application) was 3 (Herbicidal rate of 40% or more and less than 70%), the “effect on Italian ryegrass (K)” value (Italian ryegrass [18]; 3 weeks after application) was 4 (Herbicidal rate of 70% or more and less than 90%) and the “effect on windgrass (L)” value (windgrass [19]; 3 weeks after application) was 4 (Herbicidal rate of 70% or more and less than 90%). The “effect on velvetleaf (M)” value (velvetleaf [20]; 3 weeks after application) was 5 (Herbicidal rate of 90% or more (almost completely withered)), the “effect on lambsquarters (O)” value (lambsquarters [22]; 3 weeks after application) was 5 (Herbicidal rate of 90% or more (almost completely withered)) and the “effect on persian speedwell (R)” value (persian speedwell [24]; 3 weeks after application) was 5 (Herbicidal rate of 90% or more (almost completely withered)).
